± gives the expanded uncertainty stated by the source.
Conditions: Liquid, Closed cell (Static) method

| vapor or sublimation pressure (318.4 K) [kPa] | further results | Structure (SMILES) |
| --- | --- | --- |
|  | vapor or sublimation pressure (318.42 K): 525.55 ± 2.3 kPa | C=CCC [1-butene] |
|  | vapor or sublimation pressure (318.39 K): 607.54 ± 2.6 kPa | CC(C)C [2-methylpropane] |
| 538.15 ± 2.3 |  | C=C(C)C [2-methylpropene] |
| 391.45 ± 1.8 |  | C/C=C\C [(Z)-2-butene] |
| 436.55 ± 1.9 |  | CCCC [butane] |
| 31.37 ± 0.42 |  | CCOC(C)=O [ethyl acetate] |

From the NIST ThermoML archive (doi:10.1016/j.fluid.2004.10.023)
